As usually defined, the inhibition is the relative decrease from the control value, in per cent. Read a low inhibition as a response near the control.

Active and inactive are the calls of the source. The calls are words filed in the database; no cut-off is given here.

This is an account of results in ChEMBL document CHEMBL3045608, “Docking simulations, synthesis, and anti-inflammatory activity evaluation of 2-(N-alkyl)amino-3-nitroimidazo[1,2-a]pyridines” (Med Chem Res, 2012).

Data set [1] deals with Prostaglandin G/H synthase 1 (Homo sapiens) (UniProt P23219). Kind of data set: Binding affinity to COX1 (unknown origin).
The target of data set [2] is T1, Prostaglandin G/H synthase 2 (Homo sapiens) (UniProt P35354).
T1 sequence (whole entry): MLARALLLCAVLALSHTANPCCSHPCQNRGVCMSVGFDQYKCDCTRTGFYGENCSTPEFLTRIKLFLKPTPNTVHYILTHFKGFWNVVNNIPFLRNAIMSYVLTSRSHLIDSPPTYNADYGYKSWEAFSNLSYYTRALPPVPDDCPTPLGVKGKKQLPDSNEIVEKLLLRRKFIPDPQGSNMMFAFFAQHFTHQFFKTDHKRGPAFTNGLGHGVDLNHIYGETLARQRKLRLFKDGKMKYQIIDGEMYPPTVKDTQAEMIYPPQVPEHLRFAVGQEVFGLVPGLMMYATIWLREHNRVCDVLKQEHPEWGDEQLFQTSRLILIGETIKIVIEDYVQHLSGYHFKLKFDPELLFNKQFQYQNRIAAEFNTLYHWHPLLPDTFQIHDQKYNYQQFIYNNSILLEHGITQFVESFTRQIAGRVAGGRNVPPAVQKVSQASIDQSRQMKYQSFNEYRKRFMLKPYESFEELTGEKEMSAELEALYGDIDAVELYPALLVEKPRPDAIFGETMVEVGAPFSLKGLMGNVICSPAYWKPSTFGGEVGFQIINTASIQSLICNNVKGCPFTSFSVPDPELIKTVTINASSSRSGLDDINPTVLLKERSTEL
The data set is described as follows: Binding affinity to COX2 (unknown origin).

The subject of data set [3] is Rattus norvegicus. The data set is described as follows: Anti-inflammatory activity in Rattus norvegicus Wistar (rat) assessed as decrease in cotton pellet-induced total weight of granuloma at 20 mg/kg, po measured on day 8. The class given is functional, organism-based. More on the design: dose 20 mg/kg.
Data set [4] deals with Rattus norvegicus. Kind of data set: Anti-inflammatory activity in Rattus norvegicus Wistar (rat) assessed as decrease in cotton pellet-induced wet weight of granuloma at 20 mg/kg, po measured on day 8. It is filed as functional, organism-based. More on the design: dose 20 mg/kg.
Data set [5] concerns Rattus norvegicus. Kind of data set: Anti-inflammatory activity in Rattus norvegicus Wistar (rat) assessed as decrease in cotton pellet-induced dry weight of granuloma at 20 mg/kg, po measured on day 8. More on the design: dose 20 mg/kg. It is filed as functional, organism-based.
The subject of data set [6] is Rattus norvegicus. The data set is described as follows: Gastrointestinal toxicity in Rattus norvegicus Wistar (rat) assessed as induction of duodenum macroscopic damage at 20 mg/kg, po measured on day 8. The class given is organism-based. More on the design: dose 20 mg/kg, route oral. Conditions: in vivo.
In data set [7] the target is T2, Prostaglandin G/H synthase 1 (Ovis aries) (UniProt P05979).
T2 sequence (whole entry): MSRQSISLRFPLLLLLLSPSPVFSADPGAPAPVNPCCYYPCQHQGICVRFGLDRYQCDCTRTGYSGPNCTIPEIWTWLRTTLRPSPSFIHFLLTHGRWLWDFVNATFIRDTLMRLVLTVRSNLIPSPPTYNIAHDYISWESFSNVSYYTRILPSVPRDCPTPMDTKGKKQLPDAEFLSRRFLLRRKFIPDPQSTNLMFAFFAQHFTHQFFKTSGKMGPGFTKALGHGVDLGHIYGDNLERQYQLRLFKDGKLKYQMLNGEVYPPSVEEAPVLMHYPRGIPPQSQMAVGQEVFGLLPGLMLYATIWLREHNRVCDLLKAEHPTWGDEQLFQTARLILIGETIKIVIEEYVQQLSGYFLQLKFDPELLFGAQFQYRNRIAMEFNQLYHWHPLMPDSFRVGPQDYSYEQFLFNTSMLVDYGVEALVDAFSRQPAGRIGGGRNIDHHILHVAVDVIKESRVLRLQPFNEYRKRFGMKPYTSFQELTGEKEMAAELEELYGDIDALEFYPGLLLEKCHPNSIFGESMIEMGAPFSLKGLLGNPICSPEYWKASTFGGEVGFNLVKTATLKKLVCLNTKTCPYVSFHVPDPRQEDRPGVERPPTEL
The data set is described as follows: Inhibition of Ovis aries (sheep) COX1 at 0.1 uM by colorimetric analysis.

Data set [8] relates to Rattus norvegicus. The data set is described as follows: Gastrointestinal toxicity in Rattus norvegicus Wistar (rat) assessed as induction of stomach macroscopic damage at 20 mg/kg, po measured on day 8. The class given is organism-based. More on the design: dose 20 mg/kg, route oral. Conditions: in vivo.
Data set [9] relates to Rattus norvegicus. The data set is described as follows: Anti-inflammatory activity in Rattus norvegicus Wistar (rat) assessed as decrease in cotton pellet-induced granuloma weight at 20 mg/kg, po measured on day 8. The class given is functional, organism-based. More on the design: dose 20 mg/kg.

Chain of Prostaglandin G/H synthase 1 (Homo sapiens) (P23219 whole entry): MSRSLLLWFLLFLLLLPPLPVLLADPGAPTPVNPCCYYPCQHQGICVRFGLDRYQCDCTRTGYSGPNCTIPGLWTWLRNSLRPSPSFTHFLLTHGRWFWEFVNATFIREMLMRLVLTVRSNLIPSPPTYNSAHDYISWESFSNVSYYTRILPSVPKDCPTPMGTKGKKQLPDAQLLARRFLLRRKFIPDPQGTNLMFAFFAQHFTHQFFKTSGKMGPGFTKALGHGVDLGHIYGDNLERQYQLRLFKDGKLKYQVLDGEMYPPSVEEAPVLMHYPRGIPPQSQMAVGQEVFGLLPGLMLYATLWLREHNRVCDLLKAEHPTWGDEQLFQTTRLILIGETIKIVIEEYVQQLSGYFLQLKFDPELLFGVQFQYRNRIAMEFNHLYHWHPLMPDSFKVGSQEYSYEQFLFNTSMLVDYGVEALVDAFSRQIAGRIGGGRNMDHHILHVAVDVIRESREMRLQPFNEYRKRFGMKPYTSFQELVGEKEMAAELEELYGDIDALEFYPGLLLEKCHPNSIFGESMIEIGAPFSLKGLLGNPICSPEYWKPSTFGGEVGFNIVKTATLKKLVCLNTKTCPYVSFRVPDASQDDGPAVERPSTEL

On to `CCCCN(CCCC)c1nc2ccccn2c1[N+](=O)[O-]`, for which the outcome in data set [1] was Active.

As to `C[C@@H](Nc1nc2ccccn2c1[N+](=O)[O-])c1ccccc1`, the result in data set [2] and in [1] was Active.

Regarding `CC(C)Nc1nc2ccccn2c1[N+](=O)[O-]`, the outcome in data set [1] was Active.

For `O=[N+]([O-])c1c(NC2CCCCC2)nc2ccccn12`, the outcome in data set [2] and in data set [1] was Active.

As to `O=[N+]([O-])c1c(NC2CC2)nc2ccccn12`, the result in data set [3], in data set [4], in data set [5] and in [1] was Active. For the same compound, the Activity entry in data set [6] and in data set [8] was “Non-toxic” in each case. This compound also returned an inhibition in data set [7] of 3.8%.

On to `O=[N+]([O-])c1c(NCc2ccccc2)nc2ccccn12`, for which the result in data set [2] and in data set [1] was Active. Also, the outcome in data set [9] was inactive. Further, the Activity entry in data set [6] and in data set [8] was “Non-toxic” in each case.

As to `CC(C)N(c1nc2ccccn2c1[N+](=O)[O-])C(C)C`, the outcome in data set [9] was inactive. Besides, the outcome in data set [1] was Active. Further, the Activity result in data set [6] and in data set [8] was “Non-toxic” in each case.

For the compound `C[C@H](Nc1nc2ccccn2c1[N+](=O)[O-])c1ccccc1`, in data set [1], the result was Active.

Take `CCCCNc1nc2ccccn2c1[N+](=O)[O-]`: the outcome in data set [1] was Active.
